# Reference: paper PMC8696986, “Synthesis and evaluation of 3′-[^18F]fluorothymidine-5′-squaryl as a bioisostere of 3′-[^18F]fluorothymidine-5′-monophosphate” (RSC Advances, 2021)
# Where two headings read alike, the source gives them in different places.
# Assays:
# [1] = test system: TK1 and ENT1/2 ([^18F]FLT uptake in HCT116 cells); assay: In vitro competition assay between [^18F]FLT and thymidine/[^19F]SqFLT; assay type: cell-based, human
# Procedure: HCT116 were plated and maintained at 60–70% confluence in complete media conditions as previously described. […] Treated cells were incubated at 37 °C for 20 min before [^18F]FLT was added to each well to yield a final concentration of 0.74 mBq per well. Cells were subsequently incubated in a humidified atmosphere of 5% CO2 for 1 h before being lysed and gamma counted as previously described.
# (§1) 6.0 Metabolite analysis in microsomes
# Figure 31. Representative HPLC chromatograms showing A) parent [18F]SqFLT, and incubation of [18F]SqFLT with HLM for B) 30 mins and C) 60 mins.
# The experiment was performed in triplicate (n = 3)
# 7.0 Gene structure and positions of CRISPR and PCR primers.
# Figure 32. Diagram (not to scale) indicates overall gene structure and positions of the CRISPRS […]
# 8.0 Determining if [18F]SqFLT is a substrate for TK1 and ENT1/2 […]
# and B) [19F]SqFLT to determine the effect on [18F]FLT uptake. HCT116 cells (at 60 – 70 % […]
# for 20 min prior to co-incubation with [18F]FLT (0.74 MBq). Radioactive uptake normalised […]
# [2] = cited from earlier work
# [3] = set-up: method as in PMID 12217356, PMID 27319940; conditions: cited from earlier work
# [4] = biological target: T1, ABCB1 transporter (HCT116 cells) (Homo sapiens, UniProt P08183); assay: Efflux assay with verapamil; assay type: cell-based; conditions: verapamil 3 μM, 1 h pre-incubation then 1 h co-incubation
# T1 construct: endogenous in cells; host or cells: HCT116 cells
# T1 sequence (P08183 whole entry): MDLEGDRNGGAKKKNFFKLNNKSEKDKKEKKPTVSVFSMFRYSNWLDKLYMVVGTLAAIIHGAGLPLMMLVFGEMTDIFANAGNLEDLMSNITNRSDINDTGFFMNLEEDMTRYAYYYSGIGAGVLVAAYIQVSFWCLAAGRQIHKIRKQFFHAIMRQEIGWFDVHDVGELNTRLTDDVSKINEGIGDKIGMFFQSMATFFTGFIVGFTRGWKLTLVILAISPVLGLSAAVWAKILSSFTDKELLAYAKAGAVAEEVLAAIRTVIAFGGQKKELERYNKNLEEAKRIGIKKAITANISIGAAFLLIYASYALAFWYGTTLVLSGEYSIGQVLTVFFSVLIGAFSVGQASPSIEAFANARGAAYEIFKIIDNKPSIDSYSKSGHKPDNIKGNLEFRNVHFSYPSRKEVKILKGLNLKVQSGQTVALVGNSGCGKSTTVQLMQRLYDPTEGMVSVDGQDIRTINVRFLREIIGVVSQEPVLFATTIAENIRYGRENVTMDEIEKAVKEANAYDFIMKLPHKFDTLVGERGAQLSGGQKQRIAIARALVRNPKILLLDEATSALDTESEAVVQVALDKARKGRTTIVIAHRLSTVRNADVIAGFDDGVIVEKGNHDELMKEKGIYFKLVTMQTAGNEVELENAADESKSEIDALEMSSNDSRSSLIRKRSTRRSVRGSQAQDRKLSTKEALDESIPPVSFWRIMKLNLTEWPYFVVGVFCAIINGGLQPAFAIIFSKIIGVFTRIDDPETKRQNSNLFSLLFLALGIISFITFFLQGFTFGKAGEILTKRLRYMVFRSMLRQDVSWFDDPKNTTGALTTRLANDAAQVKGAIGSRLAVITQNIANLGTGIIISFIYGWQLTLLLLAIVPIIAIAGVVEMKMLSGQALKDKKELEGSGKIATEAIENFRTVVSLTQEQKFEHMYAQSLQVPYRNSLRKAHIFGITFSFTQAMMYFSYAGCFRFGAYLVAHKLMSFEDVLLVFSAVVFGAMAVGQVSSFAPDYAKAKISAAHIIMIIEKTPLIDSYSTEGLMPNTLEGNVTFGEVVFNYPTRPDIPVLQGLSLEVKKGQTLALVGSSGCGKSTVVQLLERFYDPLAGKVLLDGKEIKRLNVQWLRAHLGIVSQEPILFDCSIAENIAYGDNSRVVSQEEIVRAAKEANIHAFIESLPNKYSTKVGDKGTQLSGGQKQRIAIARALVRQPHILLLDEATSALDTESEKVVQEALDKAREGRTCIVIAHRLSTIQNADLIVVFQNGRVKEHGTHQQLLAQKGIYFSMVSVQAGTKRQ
# Procedure: HCT116 cells were plated and maintained at 60–70% confluence in complete media conditions as previously described. Following 24 h, cell media was aspirated and treated with media containing 3 μM verapamil for 1 h prior to co-incubation with 0.74 mBq of [^18F]SqFLT. Cells were subsequently incubated for a further 1 h before being lysed and gamma counted as previously described.
# 9.0 Determining if [18F]SqFLT is a substrate for multidrug resistance proteins
# 0.00 Control 1 h Verapamil
# Figure 34. Uptake of [18F]SqFLT in HCT116 cells following treatment with Verapamil. HCT 116 cells were pre-incubated with Verapamil (3 µM) for 60 min followed by co-incubated with [18F]SqFLT (0.74 MBq). One-way Anova statistical analysis and Dunnets post hoc was performed for n = 5 samples.
# 10.0 Time activity curves (TAC)
# Figure 35. Time-activity curves derived from region-of-interest analysis of PET imaging data (including detail of uptake kinetics between 0-5 min of [18F]SqFLT injection) in bladder, kidneys and gallbladder. Data represent mean ± SEM (n>5) and is expressed as % of injected […]
# 1 M. Yun, S. J. Oh, H. J. Ha, J. S. Ryu and D. H. Moon, Nucl. Med. Biol., 2003, 30, 151–
# 2 C. N. Tetzlaff, I. Schwope, C. F. Bleczinski, J. A. Steinberg and C. Richert, Tetrahedron
# (also on this page, place not known: [18F]-SqFLT (% ID/mg protein) uptake of 4215–4218.)
# (1 picture or pasted object on this page, not shown here)
# HCT116^shTMPK− tumours = assay: Dynamic PET imaging, HCT116^shTMPK− xenografts; assay type: in vivo, female BALB/c athymic nude mice; conditions: mutant HCT116^shTMPK− xenograft, 2–10 min post-injection, PET time–activity curve
# Procedure: (§2) Female BALB/c athymic nude mice (6–8 weeks old), injected subcutaneously with either mutant HCT116^shTMPK− or WT HCT116 (Charles River UK Ltd., Margate, UK) at 5 × 10^6 cells per mouse, using dynamic PET imaging (Fig. 5A). Inoculations were performed under 2% isoflurane/O2 anesthesia 7 days after animal arrival. All mice were aged 10–16 weeks with similar weight (20 ± 2 g) and kept under standard conditions in individually ventilated cages (maximum of 6 animals per cage) prior to experiments.
# BALB/c mice (Charles River UK Ltd, Margate, UK) were anesthetized and scanned on a dedicated small animal PET scanner (G4 Genesis, Sofie Biosciences, Culver City, CA, USA) following a bolus injection of 0.75 MBq of [^18F]SqFLT via a lateral tail vein cannula. Imaging was performed under 2% isoflurane/O2 anaesthesia. After tracer injection, emission scans were acquired in list-mode format (over 0–60 min – dynamic scans) to give decay-corrected values of radioactivity accumulation in tissues. The collected data were reconstructed with a 3-dimensional maximum likelihood estimation method 3D ML-EM (Sofie Biosciences). […] Tissue radioactivity uptake values were normalized to injected dose and mouse weight.
# WT HCT116 tumours = assay: Dynamic PET imaging, WT HCT116 xenografts; assay type: in vivo, female BALB/c athymic nude mice
# Procedure: as §2
# BALB/c mice (Charles River UK Ltd, Margate, UK) were anesthetized and scanned on a dedicated small animal PET scanner (G4 Genesis, Sofie Biosciences, Culver City, CA, USA) following a bolus injection of 0.75 MBq of [^18F]SqFLT via a lateral tail vein cannula. Imaging was performed under 2% isoflurane/O2 anaesthesia. After tracer injection, emission scans were acquired in list-mode format (over 0–60 min – dynamic scans) to give decay-corrected values of radioactivity accumulation in tissues. The collected data were reconstructed with a 3-dimensional maximum likelihood estimation method 3D ML-EM (Sofie Biosciences). Cumulative images of the data were used for visualization of radiotracer uptake and to define tissue volumes of interest (VOIs) using Siemens Inveon Research Workplace software (Siemens Molecular Imaging, Inc. Knoxville, USA). Tissue radioactivity uptake values were normalized to injected dose and mouse weight.
# HCT116^shTMPK− cells = assay: In vitro cell uptake of radiotracer in TMPK knockdown HCT116^shTMPK− cells; assay type: cell-based, human; conditions: 0.74 MBq, 60 min incubation, n = 6, mean ± SEM
# Procedure: (§3) HCT116 (human colon cancer; LGC Standards, Teddington, Middlesex, UK) and subsequent knockdown HCT116^shTMPK− cells were cultured in Roswell Park Memorial Institute Medium 1640 supplemented with 10% foetal bovine serum, 2% Penicillin-Streptomycin (5000 U mL^−1) and 1% L-Glutamine. Cells were maintained in a 5% CO2 humidified incubator at 37 °C and grown in 6-well plates at 300 000 cells per well or 1 500 000 cells (per 15 cm petri dish for HPLC) for the stated cell lines. All cells were grown for 24 h in a volume of 2 mL per well or 10 mL per petri dish unless stated otherwise. All cells were maintained at 60–70% confluence prior to experiments, passaged in our laboratory for fewer than 6 months on receipt and were tested mycoplasma free. Experiments were performed using cells under 10 passages.
# Guide RNA (gRNA) sequences for CRISPR/Cas9 were generated from CRISPR design web site (http://crispr.mit.edu/), provided by the Feng Zhang Lab.[33] […]
# [^18F]SqFLT (0.74 mBq per well) was added to individual wells and cells were incubated at 37 °C in a humidified atmosphere of 5% CO2 for 15, 30, 60, 90 and 120 min. […] Cell lysates were homogenized and transferred to radioactivity counting tubes. Radioactivity in each sample was counted using an auto-gamma counter (Perkin Elmer, London, UK). Total protein per sample was quantified using the Pierce™ BCA protein assay method. […]
# WT HCT116 cells = assay: In vitro cell uptake of radiotracer in WT HCT116 cells; assay type: cell-based, human
# Procedure: as §3
# [^18F]SqFLT (0.74 mBq per well) was added to individual wells and cells were incubated at 37 °C in a humidified atmosphere of 5% CO2 for 15, 30, 60, 90 and 120 min. Following incubation, cells were washed three times with 1× PBS and lysed once ice for 15 min using RIPA buffer (1 mL per well). Cell lysates were homogenized and transferred to radioactivity counting tubes. Radioactivity in each sample was counted using an auto-gamma counter (Perkin Elmer, London, UK). Total protein per sample was quantified using the Pierce™ BCA protein assay method. Decay corrected counts were normalized to protein concentration as percentage incubated dose per milligram of cellular protein (%ID per mg protein) in each sample.
# [5] = In vitro metabolite analysis in human liver microsomes; assay type: in vitro ADME; conditions: HLM, 37 °C, over 60 min
# Procedure: A published method for performing in vitro metabolite analysis using liver microsomes was adapted.[35] [^18F]SqFLT (40 μL, 3.5 MBq) was added to human liver microsomes (50 μL, 1 mg mL^−1), NADPH regeneration system A (50 μL), NADPH regeneration system B (10 μL) and PBS (400 μL, 0.1 M) in a 1.5 mL microcentrifuge tube. The mixture was gently vortexed and incubated in aerobic conditions at 37 °C with gentle shaking for either 30 min or 60 min using a thermomixer. The mixture was transferred into a 15 mL plastic centrifuge tube and proteins were precipitated with ice-cold MeCN + 0.1% TFA (2 mL) and vortexed. Proteins were pelleted by centrifugation (12 000g, 3 min), and the supernatant removed and filtered (0.2 μm). The supernatant was diluted (1 : 9) with H2O + 0.1% TFA and injected onto a HPLC instrument bearing a 1 mL injection loop and PosiRam (LabLogic, Sheffield, UK) metabolite detector. Samples of a known volume were taken from the supernatant and the entire protein pellet were counted using an auto-gamma counter (Perkin Elmer, London, UK) to determine the extraction efficiency. All experiments were performed in triplicate (n = 3).
# as §1
# Figure 31. Representative HPLC chromatograms showing A) parent [18F]SqFLT, and incubation of [18F]SqFLT with HLM for B) 30 mins and C) 60 mins. The extraction efficiency was 96.1 ± 0.4 %. […]
# [6] = Log D7.5 determination (shake flask method); assay type: physicochemical; conditions: octanol/PBS pH 7.5, mean ± SD, n = 3
# Procedure: The hydrophilicity of [^18F]SqFLT (>90% RCP) was determined experimentally by its Log D7.5 using the shake flask method. […] Being a highly hydrophilic molecule, we were sceptical that [^18F]SqFLT would be cell permeable and aimed to determine this experimentally in radioactive cell uptake experiments.
# To a 1.5 mL microcentrifuge tube was added PBS pH 7.5 (500 μL) and octanol (500 μL). The tube was shaken for 15 min, followed by centrifugation (13 000g, 5 min). [^18F]SqFLT (3 MBq) in PBS (<5% EtOH) was added and the samples shaken for 30 min, followed by centrifugation (13 000g, 5 min). Aliquots from the octanol layer and PBS layer were removed (100 μL) and placed in counting tubes. Radioactivity was measured using a γ-counter and the partition coefficient was calculated using Log D7.5 = log10[Oct/PBS]. The Log D7.5 value was reported as mean ± SD (n = 3, triplicate analysis).
molecule,measurement,setting,value
"Cc1cn([C@H]2C[C@H](F)[C@@H](CNc3c(O)c(=O)c3=O)O2)c(=O)[nH]c1=O [[^19F]SqFLT, 5′-amino-5′-N-(2-hydroxy-3,4-dioxocyclobuten-1-yl)-5′,3′-deoxy-3′-fluoro-thymidine]",effect on [^18F]FLT uptake,"[1]; 10^−3–10^1 μg mL^−1, 20 min before [^18F]FLT, then 1 h",did not inhibit [^18F]FLT uptake
"O=c1c(O)c(NCc2ccccc2)c1=O [3-(benzylamino)-4-hydroxycyclobut-3-ene-1,2-dione]",permeability,[2]; PAMPA,significantly higher permeability compared to a phosphate analogue
same,Log D7.4,[2]; pH 7.4,−1.4
3′-[^18F]fluorothymidine-5′-monophosphate [[^18F]FLTMP],monophosphate pKa,[3]; first value,1.6
same,monophosphate pKa,[3]; second value,6.6
"Cc1cn([C@H]2C[C@H]([18F])[C@@H](CNc3c(O)c(=O)c3=O)O2)c(=O)[nH]c1=O [[^18F]SqFLT, 3′-[^18F]fluorothymidine-5′-squaryl]",effect of verapamil on radiotracer uptake,[4],did not change radiotracer uptake
same,peak radiotracer uptake in tumour,HCT116^shTMPK− tumours,1.58 ± 0.12 % ID g^−1
same,peak radiotracer uptake in tumour,"WT HCT116 tumours; WT HCT116 xenograft, 2–10 min post-injection, PET time–activity curve",2.69 ± 0.12 % ID g^−1
same,route of elimination,"WT HCT116 tumours; mice, PET time-activity curves","eliminated through the kidney, liver, and bladder"
same,time of peak radiotracer uptake in tumour,"WT HCT116 tumours; post-injection, WT and mutant xenografts, 60 min dynamic PET scan",2 to 10 min
same,uptake of [^18F]SqFLT,HCT116^shTMPK− cells,0.14 ± 0.04 % ID g^−1
same,tracer uptake in vitro,"WT HCT116 cells; HCT116 and HCT116^shTMPK− cells, as summed up in the abstract",< 0.3 % ID mg^−1
same,uptake of [^18F]SqFLT,"WT HCT116 cells; WT HCT116, 0.74 MBq, 60 min incubation, n = 6, mean ± SEM",0.24 ± 0.04 % ID mg^−1
same,drop of uptake,"WT HCT116 cells; WT HCT116, between 15–120 min",2 fold
same,time of peak uptake,"WT HCT116 cells; WT HCT116, uptake kinetic profile over 120 min",0 to 15 min
same,metabolism in human liver microsomes,[5],no metabolism over 60 min
same,dependence of uptake on TK1 and nucleoside transporters (ENT1/2),[1]; inferred from competition of [^19F]SqFLT (1–10 μg mL^−1) with [^18F]FLT,independent of TK1 and nucleoside transporters (ENT1/2)
same,logD,[6],-2.9 ± 0.24
